Laboratory results from patent US20040171688A1, “Carboxylic acids and derivatives thereof and pharmaceutical compositions containing them” (priority 1997, published 2004).
Entries after “also recorded” stand apart in the source; their conditions may differ.

Columns and labels:
HNF-4α [1] = biological target: T1, HNF-4α (Rattus norvegicus, UniProt P22449); assay: Gel mobility shift assay: His-HNF-4α binding to C3P apo CIII promoter oligonucleotide; format: biochemical; design: The full length HNF-4α1 cDNA cloned into 6His-pET11d vector was expressed in E.coli BL21 (DE3)plysS; 6His; made in house; host or cells: E. coli BL21 (DE3)plysS; conditions: for effect on His-HNF-4α binding to C3P oligonucleotide: gel mobility shift, 10 μM acyl-CoA (FIG. 2)
T1 sequence (P22449 1-464 isoform P22449-2): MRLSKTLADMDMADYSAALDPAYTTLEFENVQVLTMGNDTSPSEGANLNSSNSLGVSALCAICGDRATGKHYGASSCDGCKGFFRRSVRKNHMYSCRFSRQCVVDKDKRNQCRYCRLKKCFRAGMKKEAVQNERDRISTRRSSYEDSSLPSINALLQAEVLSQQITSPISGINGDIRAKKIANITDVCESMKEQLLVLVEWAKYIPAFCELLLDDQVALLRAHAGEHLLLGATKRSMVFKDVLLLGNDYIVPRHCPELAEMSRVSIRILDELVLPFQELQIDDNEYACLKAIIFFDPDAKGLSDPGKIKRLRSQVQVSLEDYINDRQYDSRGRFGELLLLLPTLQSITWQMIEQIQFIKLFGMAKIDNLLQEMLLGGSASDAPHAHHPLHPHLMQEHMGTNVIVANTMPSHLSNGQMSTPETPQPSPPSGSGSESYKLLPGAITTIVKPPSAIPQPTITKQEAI
Protocol: a. His-HNF-4I (14 ng) binding to C3P in the absence (lane 1) or presence of 10 μM each of myristoyl(14:0)-CoA (lane 2) or palmitoyl(16:0)-CoA (lane 3).
b. His-HNF-4I (20 ng) binding to C3P in the absence (lane 1) or presence of 10 μM each of stearoyl(18:0)-CoA (lane 2) or linolenoyl(18:3, w-3)-CoA (lane 3).
c. Activation of His-HNF-4I (14 ng) binding to C3P by increasing concentrations of myristoyl(14:0)-CoA. The gel section containing radiolabeled C3P bound to His-HNF-4I dimer is shown.
His-HNF-4α and acyl-CoA (as indicated) were preincubated for 30 min at 22° C. in 11 mM Hepes (pH 7.9) containing 50 mM KCl, 1 mM dithiothreitol. 2.5 mM MgCl2, 10% glycerol, 1 μg of poly(dI-dC) in a final volume of 20 μl. ^32P-labeled oligonucleotide (0.1 ng) consisting of the human C3P apo CIII promoter sequence,(−87/−66)^6 was then added, and incubation was continued for an additional 15 min. Protein-DNA complexes were resolved by 5% nondenaturing polyacrylamide gel in 0.6×TBE and quantitated by PhosphorImager analysis.
HNF-4α activity as a function of binding of long chain acyl-CoAs was evaluated by studying the binding of HNF-4α to its cognate C3P element of the apo CIII promoter sequence (−87/−66)^6 in the presence or absence of added acyl-CoAs of variable chain length, degree of saturation, and degree of substitution. Binding was verified by using a gel mobility shift assay. […] Activation was concentration dependent and maximal in the presence of myristoyl(14:0)-CoA added within a concentration range required for its binding to HNF-4α.

HNF-4α [2] = biological target: T2, HNF-4α (Rattus norvegicus, UniProt P22449); assay: Ligand binding assay with [3H]palmitoyl(16:0)-CoA on recombinant GST-HNF-4α(LBD) or His-HNF-4α; conditions: competition with 8 nM [3H]palmitoyl(16:0)-CoA; GST-HNF-4α(LBD) or His-HNF-4α; read-out: EC50 (50% specific competition)
T2 construct: GST-HNF-4α(LBD) fusion protein consisting of amino acids 96-455 of wild type HNF-4α fused to GST; fused on or other part: Glutathione-S-transferase (GST) at the N-terminus of the LBD construct; 6-histidine tag on the full-length construct
T2 sequence (P22449 105-464 isoform P22449-2 limits assumed): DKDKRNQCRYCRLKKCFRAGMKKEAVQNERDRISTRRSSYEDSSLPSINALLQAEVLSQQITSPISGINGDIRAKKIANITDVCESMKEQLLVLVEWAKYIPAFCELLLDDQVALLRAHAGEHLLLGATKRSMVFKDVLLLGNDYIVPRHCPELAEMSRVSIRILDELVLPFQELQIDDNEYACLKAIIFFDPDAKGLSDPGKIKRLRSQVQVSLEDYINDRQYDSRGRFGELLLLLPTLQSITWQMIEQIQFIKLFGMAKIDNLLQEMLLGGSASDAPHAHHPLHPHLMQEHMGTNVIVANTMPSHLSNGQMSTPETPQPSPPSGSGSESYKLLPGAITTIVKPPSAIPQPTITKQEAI
Protocol: a. […] The respective recombinant proteins are incubated to equilibrium with [^3H]palmitoyl(16:0)-CoA (0.05 μCi) and with increasing nonlabeled palmitoyl(16:0)-CoA as indicated.
b. […] The respective recombinant proteins are incubated with 8 nM of [^3H]palmitoyl(16:0)-CoA (60 Ci/mmol) and with increasing nonlabeled myristoyl(14:0)-CoA as indicated. Percent bound refers to radiolabeled [^3H]palmitoyl(16:0)-CoA in the bound fraction. […] Percent bound refers to radiolabeled [^3H]palmitoyl(16:0)-CoA in the bound fraction.
Rat HNF-4α1 cDNA(pLEN4S)^1 was subcloned into the glutathione-S-transferase (GST) encoding pGEX-2T plasmid (Pharmacia) and the resultant plasmid was cleaved with smaI and AccI and religated to yield the GST-HNF-4α(LBD) fusion plasmid. […] The full length HNF-4α1 cDNA cloned into 6His-pET11d vector was expressed in E.coli BL21 (DE3)plysS.
Recombinant GST-HNF-4α(LBD) (100 pmol) or His-HNF-4α (100 pmol) were incubated for 60 min at 22° C. with [^3H]palmitoyl(16:0)-CoA (American RadiolabeledChemicals) in 100 μl of 10 mM phosphate buffer (pH 7.4). Competitor ligands or solvent carrier were added as indicated. Free and HNF-4α bound ^3[H]palmitoyl(16:0)-CoA were separated by […] and bound ligand was quantified by liquid scintillation counting. Nonspecific binding of [^3H]palmitoyl(16:0)-CoA was determined by its binding to the GST moiety or to carbonic anhydrase as nonrelevant protein.
Binding was exemplified with either the ligand binding domain of HNF-4α fused to glutathione-s-transferase (GST-HNF-4α(LBD)) or the full length HNF-4α protein tagged by 6 histidines (His-HNF-4α).

Row | SMILES | effect on His-HNF-4α binding to C3P oligonucleotide (HNF-4α [1]) | direct effect on HNF-4α (summary) (HNF-4α [1]; summary statement of Example 4) | EC50 (HNF-4α [2])
1 | CCCCCCCCCCCCCCCCCC(=O)SCCNC(=O)CCNC(=O)[C@H](O)C(C)(C)COP(=O)(O)OP(=O)(O)OC[C@H]1O[C@@H](n2cnc3c(N)ncnc32)[C@H](O)[C@@H]1OP(=O)(O)O [Stearoyl(18:0)-CoA] | potent inhibition | antagonistic effect | 2.7 µM
2 | CCCCCCCCCCCCCC(=O)SCCNC(=O)CCNC(=O)[C@H](O)C(C)(C)COP(=O)(O)OP(=O)(O)OC[C@H]1O[C@@H](n2cnc3c(N)ncnc32)[C@H](O)[C@@H]1OP(=O)(O)O [myristoyl(14:0)-CoA, reference compound] | Activation; also recorded: maximal | – | 1.4 µM
